In patent US12029748B2, “Synergistic composition for maintenance of healthy balance of microflora” (KIMBERLY-CLARK WORLDWIDE, INC., priority 2017, dated 2024):
Where a SMILES comes first, the peptide text is derived from it.

What was measured:
[1] = tested on: L. crispatus and E. coli; assay: Therapeutic Effect Protocol: L. crispatus / E. coli co-culture, ratio after 36 hours; format: cell-based, Lactobacillus crispatus; E. coli; details: for Therapeutic Efficacy Results (Lactobacillus/E. coli) 0.10%: nitrogen compound 0.10 wt/vol % with 1.0 wt/vol % α methyl-D glucoside (10:1); for Therapeutic Efficacy Results (Lactobacillus/E. coli) 0.10% / Therapeutic Efficacy Results (Lactobacillus/E. coli) 0.50% / Therapeutic Efficacy Results (Lactobacillus/E. coli) 1.00%: 36 hours anaerobic co-culture, 37° C.; for Therapeutic Efficacy Results (Lactobacillus/E. coli) 0.50%: nitrogen compound 0.50 wt/vol % with 1.0 wt/vol % α methyl-D glucoside (2:1); for Therapeutic Efficacy Results (Lactobacillus/E. coli) 1.00%: nitrogen compound 1.00 wt/vol % with 1.0 wt/vol % α methyl-D glucoside (1:1); for Therapeutic effect when ratio α methyl-D glucoside : nitrogen compound is at least about 2:1, but not at 1:1: ratio at least about 2:1, not 1:1; for Therapeutic effect of other saccharides: saccharide other than α methyl-D glucoside, by itself or with a nitrogen containing compound
Method: As used herein the term “therapeutic effect” refers to the ability of the compositions and formulations of the present invention to stimulate the growth of Lactobacillus relative E. coli measured according to the Therapeutic Effect Protocol described below. Generally, therapeutic effect is expressed as a ratio of Lactobacillus to E. coli and is desirably greater than about 2, more preferably greater than about 20 and more desirably greater than about 100.
The data in Table 1 was tested according to the Therapeutic Effect Protocol as described further herein. The nitrogen compounds were tested for their therapeutic efficacy at three different concentrations when combined with α methyl-D glucoside (1% wt/vol %). The concentrations of the nitrogen containing compounds that were tested were 1% wt/vol %, 0.5% wt/vol %, and 0.1% wt/vol %.
Colonies of L. crispatus and E. coli were prepared as follows. A colony of L. crispatus was transferred to 7 ml de Man, Rogosa & Sharpe (MRS) broth and incubated anaerobically (using BD GasPak EZ anaerobe container system with indicator) at 37° C. without shaking for 18-20 hours. A colony of E. coli was transferred to 5 ml Tryptic Soy Broth (TSB) and incubated aerobically (shaking at 100 rpm) at 37° C. for 18-20 hours.
Colonies were then inoculated as follows. Bacterial cultures were gently vortexed and 1 mL of each culture was transferred to a corresponding 2.0 mL micro-centrifuge tube and then centrifuged for two minutes at 14,500 rpm. The cultural supernatant was removed and the cell pellet was re-suspended in 1 mL of 0.95% (wt/vol %) saline. […] For L. crispatus, the pellet was re-suspended in 1 mL of 0.95% saline to achieve ˜10^7-10^8 cfu/mL. For E. coli, the pellet was re-suspended in 1 mL of 0.95% saline to achieve ˜10^8-10^9 cfu/mL.
Media were prepared as follows.
(§1) All of the ingredients in Table 2 were combined and the pH was adjusted to 6.5. […] To evaluate the effect of various nitrogen containing therapeutic agents on the growth of bacteria, the LAPT-g media, prepared as described above, was supplemented with various nitrogen containing compound therapeutic agents to a final test concentration between 0.1 and 1.0%. As initial screening measures, solubility and initial pH of each composition were checked. If a specific composition was insoluble (as detected by visual indication of precipitates or turbidity), then no further therapeutic efficacy testing was undertaken on that composition. Additionally, if the initial pH of the composition was below 5.5 (“Low”) or was above 6.5 (“High”), then no further therapeutic efficacy testing was undertaken on that composition.
Five milliliters (5 mL) of each medium was transferred to a test tube in duplicates for subsequent inoculation. A master mixture of L. crispatus and E. coli, prepared as described above, was prepared in 1,000:1 ratio. Each (5 ml) test tube was inoculated with the master mixture to give 10^5-10^6 total CFU L. crispatus and 100-1,000 total CFU E. coli per tube.
To establish a negative control, one tube was vortexed and 100 μL was removed to determine the initial cell concentrations by serial dilutions and plating (2 plates per dilution). L. crispatus is selected on MRS agar plates incubated anaerobically at 37° C. for two days. E. coli is selected on TSA plates incubated aerobically at 37° C. for one day. The co-cultures were incubated in an anaerobic container with BD GasPaks at 37° C. for 36 hours.
The effect of the α methyl-D glucoside and the nitrogen containing compound therapeutic agents on the ratio of L. crispatus to E. coli was measured 36 hours after inoculation and a final pH of the test solutions was recorded. The co-culture tube was vortexed and 100 μL was removed to determine the final cell concentrations by serial dilutions and plating (2 plates per dilution). L. crispatus is selected on MRS agar plates incubated anaerobically at 37° C. for two days.

[2] = Initial pH screening of the composition; format: physicochemical; details: for I pH (initial pH), 0.10%: nitrogen compound 0.10 wt/vol % with 1.0 wt/vol % α methyl-D glucoside in medium; for I pH (initial pH), 0.50%: nitrogen compound 0.50 wt/vol % with 1.0 wt/vol % α methyl-D glucoside in medium; for I pH (initial pH), 1.00%: nitrogen compound 1.00 wt/vol % with 1.0 wt/vol % α methyl-D glucoside in medium
Text: Each composition in Table 1 went through initial screening measures of solubility and initial pH (“I pH”). […] When a specific concentration of a nitrogen containing compound was insoluble, the initial and final pH (“F pH”) of the combined composition was not measured and accordingly are each marked as “NM.” Additionally, initial pH of the composition was checked as a screening measure. The initial pH was marked as either Low (“L”), High (“H”), or Pass (“P”). A Low initial pH corresponds to an initial pH being less than 5.5, a High initial pH corresponds to an initial pH being greater than 6.5, and a Pass initial pH corresponds to the pH being at or between 5.5-6.5. […] As part of the Therapeutic Effect Protocol, a final pH was also measured after the compositions that were tested against the Lactobacillus and E. coli.
as §1

Compound	Therapeutic Efficacy Results (Lactobacillus/E. coli) 0.10% [1]	Therapeutic Efficacy Results (Lactobacillus/E. coli) 0.50% [1]	Therapeutic Efficacy Results (Lactobacillus/E. coli) 1.00% [1]	I pH (initial pH), 0.10% [2]	I pH (initial pH), 0.50% [2]	I pH (initial pH), 1.00% [2]	other results
CCC(N)C(=O)O (racemic) [DL-a-amino-n-butyric acid]	0.34	100	4.44	P (a Pass initial pH corresponds to the pH being at or between 5.5-6.5)	P (a Pass initial pH corresponds to the pH being at or between 5.5-6.5)	P (a Pass initial pH corresponds to the pH being at or between 5.5-6.5)	Therapeutic effect when ratio α methyl-D glucoside : nitrogen compound is less than 2:1 (1:1) ([1]; with α methyl-D glucoside, ratio 1:1): provided a therapeutic effect; Therapeutic effect when ratio α methyl-D glucoside : nitrogen compound is at least about 2:1, but not at 1:1 ([1]; with α methyl-D glucoside): provided a therapeutic effect
C[C@H](N)C(=O)N[C@@H](CC(=O)O)C(=O)O [Ala-Asp] (H-Ala-Asp-OH)	>100			P (a Pass initial pH corresponds to the pH being at or between 5.5-6.5)	L (A Low initial pH corresponds to an initial pH being less than 5.5)	L (A Low initial pH corresponds to an initial pH being less than 5.5)	Therapeutic effect when ratio α methyl-D glucoside : nitrogen compound is at least about 2:1, but not at 1:1 ([1]; with α methyl-D glucoside): provided a therapeutic effect
C[C@H](N)C(=O)N[C@@H](CCC(=O)O)C(=O)O [Ala-Glu] (H-Ala-Glu-OH)	10.67			P (a Pass initial pH corresponds to the pH being at or between 5.5-6.5)	L (A Low initial pH corresponds to an initial pH being less than 5.5)	L (A Low initial pH corresponds to an initial pH being less than 5.5)	Therapeutic effect when ratio α methyl-D glucoside : nitrogen compound is at least about 2:1, but not at 1:1 ([1]; with α methyl-D glucoside): provided a therapeutic effect
C[C@H](N)C(=O)N[C@@H](Cc1cnc[nH]1)C(=O)O [Ala-His] (H-Ala-His-OH)	>133	6.59E+02		P (a Pass initial pH corresponds to the pH being at or between 5.5-6.5)	P (a Pass initial pH corresponds to the pH being at or between 5.5-6.5)	H (a High initial pH corresponds to an initial pH being greater than 6.5)	Therapeutic effect when ratio α methyl-D glucoside : nitrogen compound is at least about 2:1, but not at 1:1 ([1]; with α methyl-D glucoside): provided a therapeutic effect; Therapeutic effect at ratio 2:1 and 10:1, but not at 1:1 ([1]; with α methyl-D glucoside, ratios 2:1 and 10:1, not 1:1): provided a therapeutic effect
N.O.O.O.O.O=P([O-])(O)O.[Na+] [Ammonium Sodium Phosphate]	0.25						
Nc1ccn([C@@H]2O[C@H](CO)[C@@H](O)[C@H]2O)c(=O)n1 [Cytidine]	>103	3.85E+03	3.09				
N=C(N)NCCC[C@@H](N)C(=O)O [D-Arginine]	0.35						
N[C@H](CO)C(=O)O [D-Serine]	0.06	<1.00	0.03				
O=C[C@@H](O)[C@H](O)[C@H](O)CO [D-arabinose]							Therapeutic effect of other saccharides [1]: not able to provide a therapeutic effect
NCCCC(=O)O [DL-gamma-amino-n-butyric acid]	0.836	246.6	1.86				
NCC(=O)O [Glycine]	0.56	20.5	950				
NCCc1c[nH]cn1 [Histamine]				H (a High initial pH corresponds to an initial pH being greater than 6.5)	H (a High initial pH corresponds to an initial pH being greater than 6.5)	H (a High initial pH corresponds to an initial pH being greater than 6.5)	
N=C(N)NCCC[C@H](N)C(=O)O [L-Arginine]	0.58						
N[C@@H](CC(=O)O)C(=O)O [L-Aspartic Acid]	1.36						
N[C@@H](CCC(=O)O)C(=O)O [L-Glutamic Acid]	2.81						
O=C(O)[C@@H]1CCCN1 [L-Proline]	1.88	0.55	1.25				
CCCCCN [N-Amylamine]				H (a High initial pH corresponds to an initial pH being greater than 6.5)	H (a High initial pH corresponds to an initial pH being greater than 6.5)	H (a High initial pH corresponds to an initial pH being greater than 6.5)	
O=C(O)CC[C@@H](C(=O)O)N1C(=O)c2ccccc2C1=O [n-phthaloyl-l-glutamic acid]				L (A Low initial pH corresponds to an initial pH being less than 5.5)	L (A Low initial pH corresponds to an initial pH being less than 5.5)	L (A Low initial pH corresponds to an initial pH being less than 5.5)	
OC[C@H]1O[C@H](OC[C@H]2O[C@H](OC[C@H]3O[C@H](O[C@]4(CO)O[C@H](CO)[C@@H](O)[C@@H]4O)[C@H](O)[C@@H](O)[C@@H]3O)[C@H](O)[C@@H](O)[C@H]2O)[C@H](O)[C@@H](O)[C@H]1O [stachyose]							Therapeutic effect of other saccharides [1]: not able to provide a therapeutic effect
Ammonium Citrate	>260	4.93E−04	3.15E−08				
